Laboratory results taken from the NIST ThermoML archive (doi:10.1021/je900830s).
Numbers after ± are expanded uncertainties.

Conditions: 101.33 kPa, Liquid, Buoyancy - hydrostatic balance with magnetic suspension - one sinker

Question: What does the source list for `CCO` [ethanol]?
Answer: mass density (313.2 K): 768.9 ± 3.5 kg/m3; mass density (338.2 K): 752.7 ± 1.7 kg/m3; mass density (343.2 K): 732.4 ± 1.2 kg/m3
